The values below come from ChEMBL document CHEMBL5331092, “PROTACS: A technology with a gold rush-like atmosphere” (Eur J Med Chem, 2023).

Test [1] deals with von Hippel-Lindau disease tumor suppressor/Androgen receptor (Homo sapiens) (UniProt P10275+P40337). As to the kind of experiment: PROTAC activity at VHL/AR in human VCaP cells assessed as maximum degradation at 5 nM relative to control. Type of test: cell-based.
Test [2] addresses T1, Protein cereblon/Estrogen receptor (Homo sapiens, UniProt P03372+Q96SW2). Briefly: Protac activity at CRBN E3 ligase/Estrogen receptor in human MCF7 cells assessed as induction of estrogen receptor degradation measured upto 24 hrs by ELISA method. Type of test: cell-based. A general note: In an ELISA, binding on a coated surface is turned into a signal by an enzyme label.
Target sequence in this assay (P03372 whole entry): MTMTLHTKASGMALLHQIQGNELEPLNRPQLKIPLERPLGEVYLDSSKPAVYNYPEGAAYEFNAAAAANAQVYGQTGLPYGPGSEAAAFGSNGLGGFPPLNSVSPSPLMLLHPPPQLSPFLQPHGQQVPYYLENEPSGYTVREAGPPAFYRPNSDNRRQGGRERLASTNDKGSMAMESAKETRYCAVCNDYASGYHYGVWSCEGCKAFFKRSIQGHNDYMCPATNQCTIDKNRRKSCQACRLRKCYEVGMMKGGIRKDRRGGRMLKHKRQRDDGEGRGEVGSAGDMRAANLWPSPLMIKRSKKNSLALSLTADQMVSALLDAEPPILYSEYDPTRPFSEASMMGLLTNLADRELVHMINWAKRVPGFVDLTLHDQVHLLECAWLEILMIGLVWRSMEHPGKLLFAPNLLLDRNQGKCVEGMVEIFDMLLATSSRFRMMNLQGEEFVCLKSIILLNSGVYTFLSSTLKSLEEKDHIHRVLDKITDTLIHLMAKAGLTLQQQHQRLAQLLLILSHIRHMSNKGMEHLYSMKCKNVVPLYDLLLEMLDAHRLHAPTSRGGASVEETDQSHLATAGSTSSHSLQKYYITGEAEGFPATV
Target sequence in this assay (Q96SW2 whole entry): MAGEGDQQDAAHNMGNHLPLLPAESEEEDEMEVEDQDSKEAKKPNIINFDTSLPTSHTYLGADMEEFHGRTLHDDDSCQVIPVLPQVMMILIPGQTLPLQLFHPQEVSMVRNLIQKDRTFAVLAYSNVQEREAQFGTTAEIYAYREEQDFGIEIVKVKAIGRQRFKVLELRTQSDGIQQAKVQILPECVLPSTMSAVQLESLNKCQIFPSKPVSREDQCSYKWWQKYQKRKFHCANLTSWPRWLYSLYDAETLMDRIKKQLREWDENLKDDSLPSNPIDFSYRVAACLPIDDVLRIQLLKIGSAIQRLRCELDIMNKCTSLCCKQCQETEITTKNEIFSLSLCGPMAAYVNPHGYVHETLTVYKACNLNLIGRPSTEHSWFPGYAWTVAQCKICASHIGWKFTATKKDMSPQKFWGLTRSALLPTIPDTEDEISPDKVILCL
For test [3], the target named is T1, Protein cereblon/Estrogen receptor. Briefly: Protac activity at CRBN E3 ligase/Estrogen receptor in human MCF7 cells assessed maximum degradation at 1.5 uM measured upto 24 hrs by ELISA method relative to control. Type of test: cell-based.
Target sequence in this assay (P03372 whole entry, looked up): as the sequence (P03372 whole entry) above
Target sequence in this assay (Q96SW2 whole entry, looked up): as the sequence (Q96SW2 whole entry) above
The target is the same in test [4]. As to the kind of experiment: Protac activity at CRBN E3 ligase/Estrogen receptor in human T47D cells assessed maximum degradation at 1.5 uM measured upto 24 hrs by ELISA method relative to control. It counts as cell-based.
Target sequence in this assay (P03372 whole entry, looked up): as the sequence (P03372 whole entry) above
Target sequence in this assay (Q96SW2 whole entry, looked up): as the sequence (Q96SW2 whole entry) above
The target is the same in test [5]. As to the kind of experiment: Protac activity at CRBN E3 ligase/Estrogen receptor in human T47D cells assessed as induction of estrogen receptor degradation measured upto 24 hrs by ELISA method. Type of test: cell-based.
Target sequence in this assay (P03372 whole entry): as the sequence (P03372 whole entry) above
Target sequence in this assay (Q96SW2 whole entry): as the sequence (Q96SW2 whole entry) above
Test [6] has as its target Protein cereblon/Tyrosine-protein kinase BTK (Homo sapiens, UniProt Q06187+Q96SW2). Briefly: PROTAC activity at CRBN/BTK in human TMD8 cells assessed as induction of BTK degradation incubated for 24 hrs by immunoblotting analysis. It counts as cell-based.
Test [7] deals with Protein cereblon/Focal adhesion kinase 1 (Homo sapiens) (UniProt Q05397+Q96SW2). Briefly: Protac activity at CRBN E3 ligase/FAK (unknown origin) assessed as […] FAK degradation at 10 nM relative to control. Type of test: protein assay. Details: scale not given: the % may be the effect or the level left.
Chain of Protein cereblon/Focal adhesion kinase 1 (Homo sapiens) (Q05397 2-1052 limits assumed): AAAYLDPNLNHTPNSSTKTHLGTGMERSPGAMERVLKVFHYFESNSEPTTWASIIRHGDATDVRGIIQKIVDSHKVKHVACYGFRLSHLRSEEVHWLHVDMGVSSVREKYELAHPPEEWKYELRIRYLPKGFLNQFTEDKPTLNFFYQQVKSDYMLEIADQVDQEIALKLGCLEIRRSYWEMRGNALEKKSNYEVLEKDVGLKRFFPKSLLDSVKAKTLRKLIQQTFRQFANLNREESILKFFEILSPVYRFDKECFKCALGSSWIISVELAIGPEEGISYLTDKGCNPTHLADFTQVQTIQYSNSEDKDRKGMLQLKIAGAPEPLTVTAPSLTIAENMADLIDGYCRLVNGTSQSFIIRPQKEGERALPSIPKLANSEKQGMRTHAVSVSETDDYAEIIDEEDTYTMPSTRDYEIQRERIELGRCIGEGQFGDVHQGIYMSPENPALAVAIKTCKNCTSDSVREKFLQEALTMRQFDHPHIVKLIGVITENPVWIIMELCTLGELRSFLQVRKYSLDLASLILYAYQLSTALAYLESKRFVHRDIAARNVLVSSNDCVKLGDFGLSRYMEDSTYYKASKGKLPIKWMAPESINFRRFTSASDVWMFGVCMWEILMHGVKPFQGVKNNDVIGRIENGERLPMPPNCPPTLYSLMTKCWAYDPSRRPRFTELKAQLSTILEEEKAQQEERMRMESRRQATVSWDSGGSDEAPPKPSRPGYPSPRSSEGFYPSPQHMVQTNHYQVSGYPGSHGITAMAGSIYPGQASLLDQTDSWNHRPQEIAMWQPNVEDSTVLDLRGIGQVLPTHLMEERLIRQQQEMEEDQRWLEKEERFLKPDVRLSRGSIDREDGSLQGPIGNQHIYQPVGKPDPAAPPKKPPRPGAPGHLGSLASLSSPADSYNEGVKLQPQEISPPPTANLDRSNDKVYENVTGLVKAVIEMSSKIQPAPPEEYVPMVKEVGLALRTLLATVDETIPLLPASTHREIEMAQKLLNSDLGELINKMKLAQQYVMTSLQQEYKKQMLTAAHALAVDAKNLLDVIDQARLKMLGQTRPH
Chain of Protein cereblon/Focal adhesion kinase 1 (Homo sapiens) (Q96SW2 whole entry partner): as the sequence (Q96SW2 whole entry) above

Chain of von Hippel-Lindau disease tumor suppressor/Androgen receptor (Homo sapiens) (P10275 whole entry, looked up): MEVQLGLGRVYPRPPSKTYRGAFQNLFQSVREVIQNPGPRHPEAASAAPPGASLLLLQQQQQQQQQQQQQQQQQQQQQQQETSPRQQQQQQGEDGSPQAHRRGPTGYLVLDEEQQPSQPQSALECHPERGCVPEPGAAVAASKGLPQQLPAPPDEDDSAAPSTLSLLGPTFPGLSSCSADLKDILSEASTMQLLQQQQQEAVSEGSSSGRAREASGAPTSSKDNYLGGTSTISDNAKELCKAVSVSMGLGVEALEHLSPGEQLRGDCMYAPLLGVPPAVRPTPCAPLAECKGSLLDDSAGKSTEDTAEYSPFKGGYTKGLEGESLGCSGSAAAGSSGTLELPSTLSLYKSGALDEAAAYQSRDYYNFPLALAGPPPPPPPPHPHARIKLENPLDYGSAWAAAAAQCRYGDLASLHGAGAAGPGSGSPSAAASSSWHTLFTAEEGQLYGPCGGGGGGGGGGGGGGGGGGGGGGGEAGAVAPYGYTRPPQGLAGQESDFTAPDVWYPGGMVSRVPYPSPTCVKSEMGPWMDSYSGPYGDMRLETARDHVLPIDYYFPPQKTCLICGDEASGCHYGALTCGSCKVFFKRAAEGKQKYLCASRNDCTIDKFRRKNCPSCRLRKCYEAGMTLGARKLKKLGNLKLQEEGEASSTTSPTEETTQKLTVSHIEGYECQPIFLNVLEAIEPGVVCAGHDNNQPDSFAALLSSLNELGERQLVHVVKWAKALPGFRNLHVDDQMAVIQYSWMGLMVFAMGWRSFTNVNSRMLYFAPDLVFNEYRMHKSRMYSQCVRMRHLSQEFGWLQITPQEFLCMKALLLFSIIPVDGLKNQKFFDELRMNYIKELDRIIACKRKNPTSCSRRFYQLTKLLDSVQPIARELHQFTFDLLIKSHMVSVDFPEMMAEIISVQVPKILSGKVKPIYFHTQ
Chain of von Hippel-Lindau disease tumor suppressor/Androgen receptor (Homo sapiens) (P40337 whole entry, looked up): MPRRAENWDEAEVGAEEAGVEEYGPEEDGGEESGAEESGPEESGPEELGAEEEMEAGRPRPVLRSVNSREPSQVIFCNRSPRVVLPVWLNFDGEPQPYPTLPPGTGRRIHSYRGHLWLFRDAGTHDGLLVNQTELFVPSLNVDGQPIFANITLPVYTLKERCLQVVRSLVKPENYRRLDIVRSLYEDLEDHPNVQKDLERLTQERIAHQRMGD
Chain of Protein cereblon/Tyrosine-protein kinase BTK (Q06187 whole entry): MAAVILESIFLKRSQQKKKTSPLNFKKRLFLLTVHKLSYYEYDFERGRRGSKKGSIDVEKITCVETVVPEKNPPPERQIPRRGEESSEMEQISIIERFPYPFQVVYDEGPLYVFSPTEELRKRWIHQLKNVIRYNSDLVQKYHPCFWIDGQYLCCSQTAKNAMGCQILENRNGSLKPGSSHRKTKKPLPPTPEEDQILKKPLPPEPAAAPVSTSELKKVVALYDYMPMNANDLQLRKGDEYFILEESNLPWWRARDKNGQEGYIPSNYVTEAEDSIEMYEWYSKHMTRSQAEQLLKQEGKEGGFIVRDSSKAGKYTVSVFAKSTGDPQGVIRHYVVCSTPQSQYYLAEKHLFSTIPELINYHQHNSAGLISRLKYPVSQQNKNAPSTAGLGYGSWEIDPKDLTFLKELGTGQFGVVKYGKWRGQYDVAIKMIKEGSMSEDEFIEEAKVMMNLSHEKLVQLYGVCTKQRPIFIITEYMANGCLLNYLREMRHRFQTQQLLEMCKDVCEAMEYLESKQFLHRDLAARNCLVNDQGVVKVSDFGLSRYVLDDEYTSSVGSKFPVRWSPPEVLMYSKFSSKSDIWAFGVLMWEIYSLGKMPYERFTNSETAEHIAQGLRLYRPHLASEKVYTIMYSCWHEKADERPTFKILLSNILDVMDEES
Chain of Protein cereblon/Tyrosine-protein kinase BTK (Q96SW2 whole entry): as the sequence (Q96SW2 whole entry) above

Regarding `Cc1ncsc1-c1ccc(CNC(=O)C2C[C@@H](O)CN2C(=O)C(NC(=O)COCCCCOc2ccc(-c3ccc(N4C(=S)N(c5ccc(C#N)c(C(F)(F)F)c5)C(=O)C4(C)C)cc3)cc2)C(C)(C)C)cc1` (some centres undefined), the Emax in test [1] was found to be 95%.
With `Cc1ncsc1-c1ccc([C@H](C)NC(=O)C2C[C@@H](O)CN2C(=O)[C@@H](NC(=O)CCCCOc2ccc(CCNC(=O)c3ccc(C(=O)c4c(-c5ccc(O)cc5)sc5cc(O)ccc45)cc3)cc2)C(C)(C)C)cc1` (some centres undefined), the EC50 in test [2] came out at 1.1 nM. In test [3], the maximum response (Emax) was found to be 98%.
Consider `Cc1ncsc1-c1ccc([C@H](C)NC(=O)C2C[C@@H](O)CN2C(=O)[C@@H](NC(=O)CCCCOc2ccc(/C=N/NC(=O)c3ccc(C(=O)c4c(-c5ccc(O)cc5)sc5cc(O)ccc45)cc3)cc2)C(C)(C)C)cc1` (some centres undefined), for which the half-maximal effective concentration (EC50) in test [2] and in test [5] was 10 nM each time. Further, the Emax in test [3] and in test [4] was over 95% throughout.
Turning to `Cc1cccc(C)c1Nc1nn(C)c2nc(Nc3ccc4c(c3)CN(CC3CCN(c5ccc6c(c5)C(=O)N(C5CCC(=O)NC5=O)C6=O)CC3)CC4)ncc12` (centres undefined), the EC50 in test [6] worked out at 4 nM.
Regarding `CN(c1ncccc1CNc1nc(Nc2ccc(NC(=O)c3cn(CCOCCOCCNc4cccc5c4C(=O)N(C4CCC(=O)NC4=O)C5=O)nn3)cc2)ncc1C(F)(F)F)S(C)(=O)=O` (centres undefined), in test [7], the Activity was 90%.

Usually Emax stands for the size of the effect at its maximum, as opposed to the concentration needed. In general, EC50 refers to the concentration at which the effect is half-maximal.
